In brackets after ≈: the same amount, converted by molar mass.
Assays:
Format in all cases: functional
[1] = system: Trichophyton mentagrophytes; test: Antifungal activity against Trichophyton mentagrophytes ATCC 9972 by micro-broth dilution method
Aspergillus niger = test: Antifungal activity against Aspergillus niger ATCC 9029 by micro-broth dilution method
Candida tropicalis = test: Antifungal activity against Candida tropicalis C131 by micro-broth dilution method
Candida albicans = test: Antifungal activity against Candida albicans ATCC 10231 by micro-broth dilution method
Trichophyton rubrum = test: Antifungal activity against Trichophyton rubrum C113 by microbroth dilution method
Saccharomyces cerevisiae = test: Antifungal activity against Saccharomyces cerevisiae ATCC 9763 by microbroth dilution method
Aspergillus flavus = test: Antifungal activity against Aspergillus flavus ATCC 9170 by micro-broth dilution method
Nannizzia gypsea = test: Antifungal activity against Microsporum gypseum C115 by microbroth dilution method
Cryptococcus neoformans = test: Antifungal activity against Cryptococcus neoformans ATCC 32264 by microbroth dilution method
Aspergillus fumigatus = test: Antifungal activity against Aspergillus fumigatus ATCC 26934 by micro-broth dilution method

Compound | MIC [1] | MIC (Aspergillus niger) | MIC (Candida tropicalis) | MIC (Candida albicans) | MIC (Trichophyton rubrum) | MIC (Saccharomyces cerevisiae) | MIC (Aspergillus flavus) | MIC (Nannizzia gypsea) | MIC (Cryptococcus neoformans) | MIC (Aspergillus fumigatus)
Cc1ccc(NC(C#N)c2ccsc2)cc1 (stereo not given) | 125 µg/mL (≈ 547 µM) | > 250 µg/mL | > 250 µg/mL | > 250 µg/mL | 125 µg/mL (≈ 547 µM) | > 250 µg/mL | > 250 µg/mL | 250 µg/mL (≈ 1090 µM) | 125 µg/mL (≈ 547 µM) | > 250 µg/mL
C[C@@H]1[C@H](O)[C@@H](C)/C=C/C=C/C=C/C=C/C=C/C=C/C=C/[C@H](O[C@@H]2O[C@H](C)[C@@H](O)[C@H](N)[C@@H]2O)C[C@@H]2O[C@](O)(C[C@@H](O)C[C@@H](O)[C@H](O)CC[C@@H](O)C[C@@H](O)CC(=O)O[C@H]1C)C[C@H](O)[C@H]2C(=O)O [AMPHOTERICIN B] | – | 0.5 µg/mL (≈ 0.541 µM) | 0.5 µg/mL (≈ 0.541 µM) | 1 µg/mL (≈ 1.08 µM) | – | 0.5 µg/mL (≈ 0.541 µM) | 0.5 µg/mL (≈ 0.541 µM) | – | 0.25 µg/mL (≈ 0.271 µM) | 0.5 µg/mL (≈ 0.541 µM)
c1ccc(NCc2ccccn2)cc1 | 25 µg/mL (≈ 136 µM) | 250 µg/mL (≈ 1360 µM) | 250 µg/mL (≈ 1360 µM) | 250 µg/mL (≈ 1360 µM) | 25 µg/mL (≈ 136 µM) | > 250 µg/mL | > 250 µg/mL | 125 µg/mL (≈ 678 µM) | > 250 µg/mL | 250 µg/mL (≈ 1360 µM)
C=CCC(Nc1ccccc1)c1ccncc1 (stereo not given) | 62.5 µg/mL (≈ 279 µM) | 250 µg/mL (≈ 1110 µM) | 250 µg/mL (≈ 1110 µM) | 250 µg/mL (≈ 1110 µM) | 250 µg/mL (≈ 1110 µM) | 125 µg/mL (≈ 557 µM) | 250 µg/mL (≈ 1110 µM) | 125 µg/mL (≈ 557 µM) | 250 µg/mL (≈ 1110 µM) | 250 µg/mL (≈ 1110 µM)
CN(C/C=C/C#CC(C)(C)C)Cc1cccc2ccccc12 [TERBINAFINE] | 0.04 µg/mL (≈ 0.137 µM) | – | – | – | 0.01 µg/mL (≈ 0.0343 µM) | – | – | 0.04 µg/mL (≈ 0.137 µM) | – | –
Cc1cc(C)cc(NCc2cccnc2)c1 | 25 µg/mL (≈ 118 µM) | 200 µg/mL (≈ 942 µM) | > 250 µg/mL | > 250 µg/mL | 25 µg/mL (≈ 118 µM) | 200 µg/mL (≈ 942 µM) | 200 µg/mL (≈ 942 µM) | 25 µg/mL (≈ 118 µM) | 100 µg/mL (≈ 471 µM) | 100 µg/mL (≈ 471 µM)
C=CCC(Nc1ccc(C)cc1)c1ccsc1 (stereo not given) | > 250 µg/mL | > 250 µg/mL | > 250 µg/mL | > 250 µg/mL | > 250 µg/mL | > 250 µg/mL | > 250 µg/mL | > 250 µg/mL | > 250 µg/mL | > 250 µg/mL
Cn1cccc1C(C#N)Nc1ccccc1 (stereo not given) | 250 µg/mL (≈ 1180 µM) | > 250 µg/mL | > 250 µg/mL | > 250 µg/mL | 250 µg/mL (≈ 1180 µM) | > 250 µg/mL | > 250 µg/mL | 250 µg/mL (≈ 1180 µM) | > 250 µg/mL | > 250 µg/mL
C=CCC(Nc1ccccc1)c1ccoc1 (stereo not given) | 62.5 µg/mL (≈ 293 µM) | > 250 µg/mL | > 250 µg/mL | > 250 µg/mL | 62.5 µg/mL (≈ 293 µM) | > 250 µg/mL | > 250 µg/mL | 125 µg/mL (≈ 586 µM) | 250 µg/mL (≈ 1170 µM) | > 250 µg/mL
Cc1cc(C)cc(NCc2ccccn2)c1 | 50 µg/mL (≈ 236 µM) | 100 µg/mL (≈ 471 µM) | 200 µg/mL (≈ 942 µM) | > 250 µg/mL | 50 µg/mL (≈ 236 µM) | > 250 µg/mL | 100 µg/mL (≈ 471 µM) | 50 µg/mL (≈ 236 µM) | 50 µg/mL (≈ 236 µM) | 100 µg/mL (≈ 471 µM)
N#CC(Nc1ccccc1)c1ccsc1 (stereo not given) | 250 µg/mL (≈ 1170 µM) | > 250 µg/mL | > 250 µg/mL | > 250 µg/mL | 250 µg/mL (≈ 1170 µM) | > 250 µg/mL | > 250 µg/mL | > 250 µg/mL | > 250 µg/mL | > 250 µg/mL

Further lines, results first:

MIC [1] | MIC (Aspergillus niger) | MIC (Candida tropicalis) | MIC (Candida albicans) | MIC (Trichophyton rubrum) | MIC (Saccharomyces cerevisiae) | MIC (Aspergillus flavus) | MIC (Nannizzia gypsea) | MIC (Cryptococcus neoformans) | MIC (Aspergillus fumigatus) | Compound
25 µg/mL (≈ 117 µM) | > 250 µg/mL | > 250 µg/mL | > 250 µg/mL | 25 µg/mL (≈ 117 µM) | > 250 µg/mL | > 250 µg/mL | 25 µg/mL (≈ 117 µM) | > 250 µg/mL | > 250 µg/mL | COc1ccc(CNc2ccccc2)cc1
25 µg/mL (≈ 132 µM) | > 250 µg/mL | > 250 µg/mL | > 250 µg/mL | 12.5 µg/mL (≈ 66 µM) | > 250 µg/mL | > 250 µg/mL | 25 µg/mL (≈ 132 µM) | > 250 µg/mL | > 250 µg/mL | c1ccc(NCc2cccs2)cc1
25 µg/mL (≈ 80.6 µM) | 100 µg/mL (≈ 322 µM) | > 250 µg/mL | > 250 µg/mL | 25 µg/mL (≈ 80.6 µM) | 200 µg/mL (≈ 645 µM) | 100 µg/mL (≈ 322 µM) | 25 µg/mL (≈ 80.6 µM) | 100 µg/mL (≈ 322 µM) | 200 µg/mL (≈ 645 µM) | Ic1ccc(NCc2ccccn2)cc1
> 250 µg/mL | > 250 µg/mL | > 250 µg/mL | > 250 µg/mL | > 250 µg/mL | > 250 µg/mL | > 250 µg/mL | > 250 µg/mL | > 250 µg/mL | 200 µg/mL (≈ 884 µM) | CN(C)c1ccc(CNc2ccccc2)cc1
25 µg/mL (≈ 125 µM) | > 250 µg/mL | 250 µg/mL (≈ 1250 µM) | > 250 µg/mL | 25 µg/mL (≈ 125 µM) | 250 µg/mL (≈ 1250 µM) | > 250 µg/mL | 50 µg/mL (≈ 251 µM) | > 250 µg/mL | > 250 µg/mL | Oc1ccc(CNc2ccccc2)cc1
125 µg/mL (≈ 615 µM) | 250 µg/mL (≈ 1230 µM) | > 250 µg/mL | > 250 µg/mL | 125 µg/mL (≈ 615 µM) | > 250 µg/mL | 250 µg/mL (≈ 1230 µM) | 250 µg/mL (≈ 1230 µM) | 250 µg/mL (≈ 1230 µM) | 250 µg/mL (≈ 1230 µM) | Cc1ccc(NCc2ccsc2)cc1
125 µg/mL (≈ 678 µM) | 250 µg/mL (≈ 1360 µM) | 250 µg/mL (≈ 1360 µM) | > 250 µg/mL | 125 µg/mL (≈ 678 µM) | > 250 µg/mL | 250 µg/mL (≈ 1360 µM) | 125 µg/mL (≈ 678 µM) | > 250 µg/mL | 250 µg/mL (≈ 1360 µM) | c1ccc(NCc2ccncc2)cc1
62.5 µg/mL (≈ 279 µM) | 250 µg/mL (≈ 1120 µM) | 62.5 µg/mL (≈ 279 µM) | 62.5 µg/mL (≈ 279 µM) | 62.5 µg/mL (≈ 279 µM) | 250 µg/mL (≈ 1120 µM) | 250 µg/mL (≈ 1120 µM) | 62.5 µg/mL (≈ 279 µM) | 62.5 µg/mL (≈ 279 µM) | 125 µg/mL (≈ 559 µM) | Clc1ccc(NCc2ccsc2)cc1
62.5 µg/mL (≈ 327 µM) | 250 µg/mL (≈ 1310 µM) | 125 µg/mL (≈ 654 µM) | 100 µg/mL (≈ 523 µM) | 25 µg/mL (≈ 131 µM) | 125 µg/mL (≈ 654 µM) | > 250 µg/mL | 100 µg/mL (≈ 523 µM) | 100 µg/mL (≈ 523 µM) | 100 µg/mL (≈ 523 µM) | Fc1ccc(NCc2ccco2)cc1
12.5 µg/mL (≈ 60.2 µM) | 62.5 µg/mL (≈ 301 µM) | 62.5 µg/mL (≈ 301 µM) | 62.5 µg/mL (≈ 301 µM) | 6.25 µg/mL (≈ 30.1 µM) | 50 µg/mL (≈ 241 µM) | 50 µg/mL (≈ 241 µM) | 12.5 µg/mL (≈ 60.2 µM) | 50 µg/mL (≈ 241 µM) | 50 µg/mL (≈ 241 µM) | Clc1ccc(NCc2ccco2)cc1
250 µg/mL (≈ 1260 µM) | > 250 µg/mL | > 250 µg/mL | > 250 µg/mL | 250 µg/mL (≈ 1260 µM) | > 250 µg/mL | > 250 µg/mL | > 250 µg/mL | > 250 µg/mL | > 250 µg/mL | N#CC(Nc1ccccc1)c1ccco1 (stereo not given)
125 µg/mL (≈ 660 µM) | 250 µg/mL (≈ 1320 µM) | 250 µg/mL (≈ 1320 µM) | 250 µg/mL (≈ 1320 µM) | 125 µg/mL (≈ 660 µM) | 250 µg/mL (≈ 1320 µM) | 250 µg/mL (≈ 1320 µM) | 250 µg/mL (≈ 1320 µM) | 250 µg/mL (≈ 1320 µM) | 250 µg/mL (≈ 1320 µM) | c1ccc(NCc2ccsc2)cc1
100 µg/mL (≈ 471 µM) | 12.5 µg/mL (≈ 58.9 µM) | 50 µg/mL (≈ 236 µM) | 50 µg/mL (≈ 236 µM) | 100 µg/mL (≈ 471 µM) | 100 µg/mL (≈ 471 µM) | 25 µg/mL (≈ 118 µM) | 100 µg/mL (≈ 471 µM) | 100 µg/mL (≈ 471 µM) | 25 µg/mL (≈ 118 µM) | Cc1ccc(NCc2cccc(N)c2)cc1
62.5 µg/mL (≈ 286 µM) | 125 µg/mL (≈ 572 µM) | 31.2 µg/mL (≈ 143 µM) | 31.2 µg/mL (≈ 143 µM) | 62.5 µg/mL (≈ 286 µM) | 62.5 µg/mL (≈ 286 µM) | 125 µg/mL (≈ 572 µM) | 62.5 µg/mL (≈ 286 µM) | 62.5 µg/mL (≈ 286 µM) | 125 µg/mL (≈ 572 µM) | Clc1ccc(NCc2ccncc2)cc1
250 µg/mL (≈ 1340 µM) | 250 µg/mL (≈ 1340 µM) | 250 µg/mL (≈ 1340 µM) | 250 µg/mL (≈ 1340 µM) | 250 µg/mL (≈ 1340 µM) | 250 µg/mL (≈ 1340 µM) | 250 µg/mL (≈ 1340 µM) | 125 µg/mL (≈ 668 µM) | 125 µg/mL (≈ 668 µM) | 250 µg/mL (≈ 1340 µM) | Cc1ccc(NCc2ccoc2)cc1

Reference: ChEMBL document CHEMBL1143950, “Antifungal and cytotoxic activities of some N-substituted aniline derivatives bearing a hetaryl fragment” (Bioorg Med Chem, 2008)
